In US20120065195A1, “COMPOUNDS FOR TREATING NEURODEGENERATIVE DISEASES” (priority 2010, published 2012):

The compounds below were run against T1, BACE1 (Homo sapiens, UniProt P56817) (assay: Cellular BACE1 Inhibition Assay (in vitro cellular Amyloidβ 1-40 production assay, HTRF immunoassay)).
T1 construct: endogenous in cells; host or cells: HEK-293 (stably transfected with wild type APP695 only)
Type: cell-based
Protocol: The BACE inhibition properties of the compounds of the invention may be determined by the following in vitro cellular Amyloidβ 1-40 production assay.
Inhibition of Amyloidβ1-40 production was determined by incubating cells with compound for 48 hours and quantifying the level of Amyloidβ 1-40 using an HTRF immunoassay.
Materials and Methods: HEK-293 cells stably transfected with a DNA construct containing the coding sequence for the wild type APP695 sequence were grown in DMEM supplemented with 10% fetal bovine serum, penicillin/streptomycin and 150 μg/mL G418. Cells were plated in 96-well plates at 35,000 cells/well and allowed to attach for 8-12 hours. Media was changed to DMEM supplemented with 10% fetal bovine serum, penicillin/streptomycin 15 minutes prior to compound addition. Diluted compounds were then added at a final concentration of 0.5% DMSO. After 48 hours, 4 μL of media from each well was added to a corresponding well of a 384 well plate (Perkin Elmer Cat#6008280) containing the HTRF reagents. HTRF reagents were obtained from the CisBio Amyloidβ 1-40 peptide assay kit (Cat#62B40PEC) and were prepared as follows anti-peptide β (1-40)-Cryptate and anti-peptide β (1-40)-XL655 were stored in 2 plate aliquots at −80° C. Diluent and Reconstitution buffer were stored at 4° C. Aliquots of the two antibodies were diluted 1:100 with Reconstitution buffer, and this mixture was diluted 1:2 with Diluent. 12 μL of the reagent mixture was added to the required wells of the 384 well assay plate. The assay plate was incubated at 4° C. for 17 hours and then analyzed for fluorescence at 665 and 620 nm.

T1 sequence (P56817 46-501): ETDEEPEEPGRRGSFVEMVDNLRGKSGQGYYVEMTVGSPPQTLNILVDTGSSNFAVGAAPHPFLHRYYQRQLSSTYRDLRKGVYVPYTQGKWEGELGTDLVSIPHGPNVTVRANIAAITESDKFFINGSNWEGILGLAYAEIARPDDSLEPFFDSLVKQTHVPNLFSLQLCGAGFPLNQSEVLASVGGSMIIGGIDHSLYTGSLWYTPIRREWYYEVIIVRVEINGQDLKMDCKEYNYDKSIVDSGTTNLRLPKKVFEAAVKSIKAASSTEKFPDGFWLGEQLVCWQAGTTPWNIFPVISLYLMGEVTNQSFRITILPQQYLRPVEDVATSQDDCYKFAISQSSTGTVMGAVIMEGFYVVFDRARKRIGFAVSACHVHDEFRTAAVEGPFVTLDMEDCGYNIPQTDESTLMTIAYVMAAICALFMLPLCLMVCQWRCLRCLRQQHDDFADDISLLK

SMILES	IC50
CN1C(=O)[C@]2(N=C1N)c1cc(-c3cncnc3)ccc1C[C@]1(C)CC12 (single isomer, unassigned) [Example 155]	27.1 nM
CC1CCc2ccc(-c3cccc(Cl)c3)cc2C12N=C(N)N(C)C2=O (stereo not shown) [Example 21, 2-amino-7′-(3-chlorophenyl)-1,2′-dimethyl-3′,4′-dihydro-2′H-spiro[imidazole-4,1′-naphthalen]-5(1H)-one]	226 nM
CC(C)CCc1ccc2c(c1)C1(N=C(N)N(C)C1=O)C(C)CC2 (stereo not shown) [Example 22]	264 nM
CN1C(=O)C2(CCCc3ccc(-c4cncc(Cl)c4)cc32)N=C1N (stereo not shown) [Example 23, 2-amino-7′-(5-chloropyridin-3-yl)-1-methyl-3′,4′-dihydro-2′H-spiro[imidazole-4,1′-naphthalen]-5(1H)-one]	28.5 nM
CN1C(=O)C2(CCCc3ccc(-c4cccc(Cl)c4)cc32)N=C1N (stereo not shown) [Example 24, 2-amino-7′-(3-chlorophenyl)-1-methyl-3′,4′-dihydro-2′H-spiro[imidazole-4,1′-naphthalen]-5(1H)-one]	189 nM
CN1C(=O)C2(CCCc3ccc(-c4cncnc4)cc32)N=C1N (stereo not shown) [Example 25, 2-Amino-1-methyl-7′-(pyrimidin-5-yl)-3′,4′-dihydro-2′H-spiro[imidazole-4,1′-naphthalen]-5(1H)-one]	104 nM
CN1C(=O)C2(N=C1N)c1cc(-c3cncc(Cl)c3)ccc1CCC2(C)C (stereo not shown) [Example 26, 2-amino-7′-(5-chloropyridin-3-yl)-1,2′,2′-trimethyl-3′,4′-dihydro-2′H-spiro[imidazole-4,1′-naphthalen]-5(1H)-one]	19.7 nM
CN1C(=O)C2(N=C1N)c1cc(-c3cncnc3)ccc1CCC2(C)C (stereo not shown) [Example 27, 2-amino-1,2′,2′-trimethyl-7′-(pyrimidin-5-yl)-3′,4′-dihydro-TH-spiro[imidazole-4,1′-naphthalen]-5(1H)-one]	10.1 nM
CN1C(=O)C2(N=C1N)c1cc(-c3cccc(C#N)c3)ccc1CCC2(C)C (stereo not shown) [Example 28, 3-(2-amino-1,2′,2′-trimethyl-5-oxo-1,3′,4′,5-tetrahydro-2′H-spiro[imidazole-4,1′-naphthalene]-7′-yl)benzonitrile]	92.5 nM
CN1C(=O)[C@@]2(N=C1N)c1cc(-c3cccc(Cl)c3)ccc1CC[C@H]2CC1CCN(CC(F)F)CC1 [Example 32, (1′S,2′S)-2-amino-7′-(3-chlorophenyl)-2′-((1-(2,2-difluoroethyl)piperidin-4-yl)methyl)-1-methyl-3′,4′-dihydro-2′H-spiro[imidazole-4,1′-naphthalen]-5(1H)-one]	48.6 nM
CN1C(=O)C2(N=C1N)c1cc(-c3cccc(Cl)c3)ccc1CCC21CCOCC1 (stereo not shown) [Example 35, 2-amino-7″-(3-chlorophenyl)-1-methyl-2′,3′,5′,6′-tetrahydro-3″,4″-dihydro-2″H-dispiro[midazol-4,1″-naphthalen-2″,4′-pyran]-5(1H)-one]	192 nM
CN1C(=O)C2(CC3(CCOCC3)Cc3ccc(-c4cc(F)cc(Cl)c4)cc32)N=C1N (stereo not shown) [Example 42, 2-amino-7″-(3-fluoro-5-chlorophenyl)-1-methyl-2′,3′,5′,6′-tetrahydro-3″,4″-dihydro-2″H-dispiro[imidazol-4,1″-naphthalen-3″,4′-pyran]-5(1H)-one]	121 nM
CC1CCc2ccc(-c3cc(F)cc(Cl)c3)cc2C12N=C(N)N(C)C2=O (stereo not shown) [Example 56, 2-amino-7′-(3-chloro-5-fluorophenyl)-1,2′-dimethyl-3′,4′-dihydro-2′H-spiro[imidazole-4,1′-naphthalen]-5(1H)-one]	361 nM
CC1CCc2ccc(-c3cccc(OC(F)F)c3)cc2C12N=C(N)N(C)C2=O (stereo not shown) [Example 57, 2-amino-7′-(3-(difluoromethoxy)phenyl)-1,2′-dimethy1-3′,4-dihydro-2′H-spiro[imidazole-4,1′-naphthalen]-5(1H)-one]	363 nM
CN1C(=O)[C@@]2(N=C1N)c1cc(-c3cccc(Cl)c3)ccc1CC[C@@H]2CC1CCN(CC(F)F)CC1 [Example 62, (1′S,2′R)-2-amino-7′-(3-chlorophenyl)-2′-((1-(2,2-difluoroethyl)piperidin-4-yl)methyl)-1-methyl-3′,4′-dihydro-2′H-spiro[imidazole-4,1′-naphthalen]-5(1H)-one]	306 nM
CN1C(=O)C2(CC3(CCOCC3)Cc3ccc(-c4cncnc4)cc32)N=C1N (stereo not shown) [Example 74, 2-amino-7″-(pyrimidin-5-yl)-1-methyl-2′,3′,5′,6′-tetrahydro-3″,4″-dihydro-2″H-dispiro[imidazol-4,1″- naphthalen-3″,4′-pyran]-5(1H)-one]	258 nM
CC1(C)Cc2ccc(NC(=O)c3ccc(Br)cn3)cc2C2(COC(N)=N2)C1 (stereo not shown) [Example 88, N-(2′-amino-3,3-dimethyl-3,4-dihydro-2H,5′H-spiro[naphthalene-1,4′-oxazole]-7-yl)-5-bromopicolinamide]	46.3 nM
Cc1nc(C(=O)Nc2ccc3c(c2)C2(COC(N)=N2)CC(C)(C)C3)co1 (stereo not shown) [Example 90, N-(2′-amino-3-dimethyl-3,4-dihydro-2H,5′H-spiro[naphthalene-1,4′-oxazole]-7-yl)-2-methyloxazole-4-carboxamide]	16.8 nM
Cc1cc(C(=O)Nc2ccc3c(c2)C2(CCSC(N)=N2)CC(C)(C)C3)c(C)o1 (stereo not shown) [Example 95, N-(2′-amino-3,3-dimethyl-3,4,5′,6′-tetrahydro-2H-spiro[naphthalene-1,4′-[1,3]thiazine]-7-yl)-2,5-dimethylfuran-3-carboxamide]	276 nM
CN1C(=O)CC2(CC(C)(C)Cc3ccc(-c4cccnc4F)cc32)N=C1N (stereo not shown) [Example 96, 2′-amino-7-(2-fluoropyridin-3-yl)-1′,3,3-trimethyl-3,4-dihydro-1′H,2H-spiro[naphthalene-1,4′-pyrimidin]-6′(5′H)-one]	1320 nM
CC1(C)Cc2ccc(-c3cncnc3)cc2C2(CSC(N)=N2)C1 (stereo not shown) [Example 109, 3,3-dimethyl-7-(pyrimidin-5-yl)-3,4-dihydro-2H,5′H-spiro[naphthalene-1,4′-thiazol]-2′-amine]	482 nM

Further lines, results first:

IC50	SMILES
76.7 nM	CN1C(=O)C2(CC(C)(C)Cc3ccc(/C=C/C4CC4)cc32)N=C1N (stereo not shown) [Example 15, (E)-2-amino-7′-(2-cyclopropylvinyl)-1,3′,3′-trimethyl-3′,4′-dihydro-2′H-spiro[imidazole-4,1′-naphthalen]-5(1H)-one]
81.9 nM	CN1C(=O)C2(CC(C)(C)Cc3ccc(C#CC4CC4)cc32)N=C1N (stereo not shown) [Example 17, 2-amino-7′-(cyclopropylethynyl)-1,3′,3′-trimethyl-3′,4′-dihydro-2′H-spiro[imidazole-4,1′-naphthalen]-5(1H)-one]
37.4 nM	CN1C(=O)C2(CC(C)(C)Cc3ccc(C#CCCCC#N)cc32)N=C1N (stereo not shown) [Example 18, 6-(2-amino-1,3′,3′-trimethyl-5-oxo-1,3′,4′,5-tetrahydro-2′H-spiro[imidazole-4,1′-naphthalene]-7′-yl)hex-5-ynenitrile]
1430 nM	CN1C(=O)C2(CC(C)(C)Cc3ccc(-c4cccc(Cl)c4)nc32)N=C1N (stereo not shown) [Example 20, 2-amino-2′-(3-chlorophenyl)-1,6′,6′-trimethyl-6′,7′-dihydro-5′H-spiro[imidazole-4,8′-quinolin]-5(1H)-one]
241 nM	CN1C(=O)C2(CC3(CCC3)Cc3ccc(-c4cccc(Cl)c4)cc32)N=C1N (stereo not shown) [Example 37, 2-amino-7′-(3-chlorophenyl)-1-methyl-5-oxo-3′,4′-dihydro-2′H-dispiro[imidazol-4,1′-naphthalen-3′,1″-cyclobutyl]-5 (1H)-one]
69.6 nM	CN1C(=O)C2(CC3(CCOCC3)Cc3ccc(/C=C/C(C)(C)C)cc32)N=C1N (stereo not shown) [Example 45, (E)-2-amino-7″-(3,3-dimethylbut-1-enyl)-1-methyl-2′,3′,5′,6′-tetrahydro-3″,4″-dihydro-2″H-dispiro[imidazol-4,1″-naphthalen-3″,4′-pyran]-5(1H)-one]
5.1 nM	Cc1cncc(-c2ccc3c(c2)C2(CC(C)(C)C3)N=C(N)N(C)C2=O)c1 (stereo not shown) [Example 131, 2-amino-1,3′,3′-trimethyl-7′-(5-methylpyridin-3-yl)-3′,4′-dihydro-2′H-spiro[imidazole-4,1′-naphthalen]-5 (1H)-one]
7.9 nM	CN1C(=O)C2(CC(C)(C)Cc3ccc(-c4cncc(C#N)c4)cc32)N=C1N (stereo not shown) [Example 134, 5-(2-amino-1,3′,3′-trimethyl-5-oxo-1,3′,4′,5-tetrahydro-2′H-spiro[imidazole-4,1′-naphthalene]-7′-yl)nicotinonitrile]
8.1 nM	Cc1cnc(F)c(-c2ccc3c(c2)C2(CC(C)(C)C3)N=C(N)N(C)C2=O)c1 (stereo not shown) [Example 135, 2-amino-7′-(2-fluoro-5-methylpyridin-3-yl)-1,3′,3′-trimethyl-3′,4′-dihydro-2′H-spiro[imidazole-4,1′-naphthalen]-5(1H)-one]
6.1 nM	COc1ccnc(-c2ccc3c(c2)C2(CC(C)(C)C3)N=C(N)N(C)C2=O)c1 (stereo not shown) [Example 137, 2-amino-7′-(4-methoxypyridin-2-yl)-1,3′,3′-trimethyl-3′,4′-dihydro-2′H-spiro[imidazole-4,1′-naphthalen]-5(1H)-one]
